Here are results for 18 compounds from patent US20090099167A1, “Organic compounds” (Novartis Institutes for Biomedical Research, priority 2004, published 2009).

Assay [1] deals with T1, Tek (Homo sapiens, UniProt Q02763).
T1 construct: N-terminally GST-fused (pAcG1, Pharmingen) KDR, Flt-1, Flk-1, Tek and PDGFR-β kinase domains are obtained from ProQinase, Freiburg, Germany; host or cells: Sf9 or High Five (baculovirus)
As to the kind of experiment: Tek kinase inhibition, GST-fused kinase domain. In kind it is biochemical. Conditions: Table 5; read-out: Tek, IC50 class. The text has this:
The inhibition of IGF-1R and Ins-R can be determined as follows: The baculovirus donor vector pfbgx3IGFIRcd is used to generate a recombinant baculovirus that expresses the amino acid region 950-1337 of the mature peptide cytoplasmic domain of the human IGF-IR. To generate the cDNA fragment encoding the amino acid region 919-1343 of the intra-cytoplasmic kinase domain of the human insulin receptor, pC5hInsR is used. The fragments of the human IGF-IR and Ins-R are cloned, expressed and small-scale purified as a factor Xa-cleavable glutathione-S-transferase (GST)-fusion protein using the Bac-to-Bac™ system (GIBCO BRL) of recombinant baculovirus generation. Virus containing media is collected from the transfected cell culture and used for infection to increase its titer. Virus containing media obtained after two rounds of infection is used for large-scale protein expression. Cell extracts are prepared and loaded onto a glutathione-Sepharose (Pharmacia) column. After washing, the GST-tagged proteins are then eluted with a glutathione-containing buffer. Purified protein is stored at −70° C. in elution buffer. Tyrosine protein kinase assays with purified GST-IGF-1R and GST-ins-R are carried in a final volume of 30 μl containing 20 mM Tris-HCl, pH 7.6, 10 mM MgCl2, 0.01 mM Na3VO4, 1% DMSO, 1 mM DTT, 3 μg/ml poly(Glu,Tyr) 4:1 and 10 μM ATP (γ-[^33P]-ATP 0.1 μCi). The assay is performed in 96-well plates at ambient temperature for 20 min and terminated by addition of 25 μl 0.05 M EDTA pH 7.0. An aliquot of 40 μl is spotted with a multichannel dispenser on Whatman P81 membranes mounted in a Millipore Microtiter filter manifold connected to a low vacuum source. After elimination of liquid, the membrane is transferred to a sequence of 4 washing baths containing 0.5% H3PO4 and one with EtOH (shaking incubation for 10 min each), dried, mounted onto a Hewlett Packard TopCount manifold added 10 μl Microscint® and counted. Compounds of formula (I) show up to 90% inhibition of Ins-R at 10,000 nM, preferably between 60-90% inhibition. The inhibition of Tek can be determined as follows: The procedure of the expression, purification and assay these kinases has been described. Fabbro et al., Pharmacol. Ther. 82(2-3) 293-301 (1999). In brief, the glutathione S-transferase (GST) gene from the pAcG1 vector (Pharmingen) is excised with EcoRV and EcoRI and inserted into the cloning site of the Fast-Bac baculoviral vector (GIBCO) creating a 5530 bp vector with N-terminal cloning sites derived from the pAcG1 fusion vector (FBG0). The C-terminal cloning site may be any cloning site (from the Fast-Bac vector) downstream of the N-terminal cloning site used. N-terminally GST-fused (pAcG1, Pharmingen) KDR, Flt-1, Flk-1, Tek and PDGFR-β kinase domains are obtained from ProQinase, Freiburg, Germany. Tek is recloned into the FBG1 vector by EcoRI excision and ligation into EcoRI digested FBG1 (FBG1-Tek). The coding sequences for the whole cytoplasmic domain of c-Kit (aa 544-976) and c-Fms (aa 538-972) are amplified by PCR from human uterus and from human bone marrow cDNA libraries (Clontech), respectively. The amplified DNA fragments are fused to GST by cloning them into FBG1 as BamHI-EcoRI insertions, to yield FBG1-c-Kit and FBG1-c-Fms. Tek is recloned into the FBG0 transfer vector by EcoRI excision and ligation into EcoRI digested FBG0 (FBG-Tie2/Tek). FGFR-1 and c-met kinase domains are obtained by PCR from human A431 cells. N-terminal primers contain an overhanging EcoRI site, while C-terminal primers contain a XhoI site to aid cloning into the transfer vectors. After digestion of both the PCR fragments and FBG0 the cleavage products are gel-purified and ligated together to form the kinase constructs (FBG-Met, FBG-FGFR-1).
Viruses for each of the kinases are made according to the protocol supplied by GIBCO. […]

Assay [2] deals with T2, c-Abl kinase (Homo sapiens, UniProt P00519).
T2 construct: The His-tagged kinase domain of c-Abl is cloned and expressed in the baculovirus/Sf9 system; His; made in house; host or cells: Sf9 (baculovirus)
T2 sequence (P00519 242-493 limits assumed): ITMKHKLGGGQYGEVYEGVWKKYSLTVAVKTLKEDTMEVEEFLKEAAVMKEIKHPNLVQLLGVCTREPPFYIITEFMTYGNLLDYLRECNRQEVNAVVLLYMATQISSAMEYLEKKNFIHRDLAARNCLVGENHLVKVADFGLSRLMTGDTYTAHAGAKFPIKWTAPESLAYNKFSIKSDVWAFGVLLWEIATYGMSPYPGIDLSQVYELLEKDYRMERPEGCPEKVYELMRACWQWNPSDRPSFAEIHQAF
As to the kind of experiment: c-Abl protein-tyrosine kinase filter binding assay. In kind it is biochemical. As for the experimental part:
The His-tagged kinase domain of c-Abl is cloned and expressed in the baculovirus/Sf9 system as described by Bhat et al. in J. Biol. Chem. 1997; 272:16170-16175. A protein of 37 kD (c-Abl kinase) is purified by a two-step procedure over a Cobalt metal chelate column followed by an anion exchange column with a yield of 1-2 mg/L of Sf9 cells (Bhat et al., reference cited). The purity of the c-Abl kinase is >90% as judged by SDS-PAGE after Coomassie blue staining. The assay contains (total volume of 30 μL): c-Abl kinase (50 ng), 20 mM Tris.HCl, pH 7.5, 10 mM MgCl2, 10 μM Na3VO4, 1 mM DTT and 0.06 μCi/assay [γ^33 P]-ATP (5 μM ATP) using 30 μg/mL poly-Ala,Glu,Lys,Tyr-6:2:5:1 (Poly-AEKY, Sigma P1152) in the presence of 1% DMSO. Reactions are terminated by adding 10 μL of 250 mM EDTA and 30 μL of the reaction mixture is transferred onto Immobilon-PVDF membrane (Millipore, Bedford, Mass., USA) previously soaked for 5 min with methanol, rinsed with water, then soaked for 5 min with 0.5% H3PO4 and mounted on vacuum manifold with disconnected vacuum source. After spotting all samples, vacuum is connected and each well rinsed with 200 μL 0.5% H3PO4. Membranes are removed and washed on a shaker with 0.5% H3PO4 (4 times) and once with ethanol. Membranes are counted after drying at ambient temperature, mounting in Packard TopCount 96-well frame, and addition of 10 μL/well of Microscint™ (Packard).

Setting [3] is: Table 5, read-out: C-abl, IC50 class.
Where [4] appears, read: Table 4, read-out: c-abl, activity (IC50 for kinase inhibition).

Where two headings read alike, the source gives them in different places.

T1 sequence (Q02763 824-1096 limits assumed, species assumed): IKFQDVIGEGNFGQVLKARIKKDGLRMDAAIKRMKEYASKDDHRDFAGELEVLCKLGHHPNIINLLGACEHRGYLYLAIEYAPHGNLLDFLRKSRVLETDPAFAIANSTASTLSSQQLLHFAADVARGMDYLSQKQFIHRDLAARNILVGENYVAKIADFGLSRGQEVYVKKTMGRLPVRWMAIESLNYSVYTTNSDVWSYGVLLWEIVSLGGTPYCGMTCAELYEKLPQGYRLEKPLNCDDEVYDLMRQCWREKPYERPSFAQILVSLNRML

For the compound `Cc1nc2c(-c3cccc(N4CC[N+](C)([O-])CC4)c3)cnn2c(N)c1-c1ccc(F)cc1` [Example 106, 6-(4-Fluoro-phenyl)-5-methyl-3-[3-(4-methyl-4-oxy-piperazin-1-yl)-phenyl]-pyrazolo[1,5-a]pyrimidin-7-ylamine], the IC50 in assay [1] was greater than 10 µM; in assay [2] (setting [3]), less than 1 µM. In the same order, the values of `CN1CCN(c2cccc(-c3cnn4c(N)c(Cc5cccc(Br)c5)cnc34)c2)CC1` [Example 85, 6-(3-Bromo-benzyl)-3-[3-(4-methyl-piperazin-1-yl)-phenyl]pyrazolo[1,5-a]pyrimidin-7-ylamine] are greater than 10 µM and less than 1 µM. For `Cc1nc2c(-c3ccc(N4CCN(C)CC4)cc3)cnn2c(N)c1-c1ccc(F)c(Cl)c1` [Example 83, 6-(3-Chloro-4-fluoro-phenyl)-5-methyl-3-[4-(4-methyl-piperazin-1-yl)-phenyl]-pyrazolo[1,5-a]pyrimidin-7-ylamine], the IC50 in assay [1] is greater than 10 µM; in assay [2] (setting [3]), less than 1 µM. In the case of `COc1ccc(-c2cnn3c(N)c(-c4cccc(Cl)c4)c(CF)nc23)cc1OC` [Example 92, 6-(3-Chloro-phenyl)-3-(3,4-dimethoxy-phenyl)-5-fluoromethyl-pyrazolo[1,5-a]pyrimidin-7-ylamine], the IC50 in assay [1] was greater than 10 µM. As to `Cc1nc2c(-c3cccc(N4CCN(CCO)CC4)c3)cnn2c(N)c1-c1ccc(F)c(Cl)c1` [Example 100, 2-(4-{3-[7-Amino-6-(3-chloro-4-fluoro-phenyl)-5-methyl-pyrazolo[1,5-a]pyrimidin-3-yl]-phenyl}-piperazin-1-yl)-ethanol], the IC50 is greater than 10 µM in assay [1] and less than 1 µM in assay [2] (setting [3]).

Regarding `Cc1nc2c(-c3ccc(N4CCN(C)CC4)cc3)cnn2c(N)c1-c1ccc(F)cc1` [Example 79, 6-(4-Fluoro-phenyl)-5-methyl-3-[4-(4-methyl-piperazin-1-yl)-phenyl]-pyrazolo[1,5-a]pyrimidin-7-ylamine], the IC50 is greater than 10 µM in assay [1] and less than 1 µM in assay [2] (setting [3]). In the same order, the values of `Cc1nc2c(-c3cccc(N4C[C@@H](C)O[C@@H](C)C4)c3)cnn2c(N)c1-c1cccc(Cl)c1` [Example 89, 6-(3-Chloro-phenyl)-3-[3-((2R,6S)-2,6-dimethyl-morpholin-4-yl)-phenyl]-5-methyl-pyrazolo[1,5-a]pyrimidin-7-ylamine] are 1 to 10 µM and less than 1 µM. For `Cc1nc2c(-c3cccc(N4CCN(CCO)CC4)c3)cnn2c(N)c1-c1cccc(Cl)c1` [Example 90, 2-(4-{3-[7-Amino-6-(3-chloro-phenyl)-5-methyl-pyrazolo[1,5-a]pyrimidin-3-yl]-phenyl}-piperazin-1-yl)-ethanol], in that order: 1 to 10 µM and less than 1 µM. As to `COc1cccc(-c2cnn3c(N)c(-c4cccc(O)c4)cnc23)c1` [Example 60, 3-[7-Amino-3-(3-methoxy-phenyl)-pyrazolo[1,5-a]pyrimidin-6-yl]-phenol], the IC50 in assay [2] (setting [4]) is less than 10 µM.

Take `Cc1nc2c(-c3cccc(N4CCN(CCO)CC4)c3)cnn2c(N)c1-c1ccc(F)cc1` [Example 97, 2-(4-{3-[7-Amino-6-(4-fluoro-phenyl)-5-methyl-pyrazolo[1,5-a]pyrimidin-3-yl]-phenyl}-piperazin-1-yl)-ethanol]: the IC50 in assay [1] is greater than 10 µM; in assay [2] (setting [3]), less than 1 µM. For `CN1CCN(c2cccc(-c3cnn4c(N)c(-c5ccccc5Cl)cnc34)c2)CC1` [Example 78, 6-(2-Chloro-phenyl)-3-[3-(4-methyl-piperazin-1-yl)-phenyl]-pyrazolo[1,5-a]pyrimidin-7-ylamine], the IC50 in assay [1] lay in the range of 1 to 10 µM. Turning to `COc1ccc(-c2cnn3c(N)c(-c4ccc(F)c(F)c4)c(C)nc23)cc1OC` [Example 99, 6-(3,4-Difluoro-phenyl)-3-(3,4-dimethoxy-phenyl)-5-methyl-pyrazolo[1,5-a]pyrimidin-7-ylamine], the IC50 in assay [1] was greater than 10 µM; in assay [2] (setting [3]), less than 1 µM. `CN1CCN(c2ccc(-c3cnn4c(N)c(-c5cccc(O)c5)cnc34)cc2)CC1` [Example 1, 3-{7-Amino-3-[4-(4-methyl-piperazin-1-yl)-phenyl]-pyrazolo[1,5-a]pyrimidin-6-yl}-phenol]: the IC50 in assay [2] (setting [4]) is less than 10 µM. The same measure, in the same setting: the value for `COc1ccccc1-c1cnn2c(N)c(-c3cccc(O)c3)cnc12` [Example 48, 3-[7-Amino-3-(2-methoxy-phenyl)-pyrazolo[1,5-a]pyrimidin-6-yl]-phenol] was less than 10 µM.

Turning to `CN1CCN(c2ccc(-c3cnn4c(N)c(-c5ccccc5Cl)cnc34)cc2)CC1` [Example 77, 6-(2-Chloro-phenyl)-3-[4-(4-methyl-piperazin-1-yl)-phenyl]-pyrazolo[1,5-a]pyrimidin-7-ylamine], in assay [1], the IC50 is less than 1 µM.

As for `COc1cc(N2CCN(C)CC2)ccc1-c1cnn2c(N)c(-c3cccc(Cl)c3)c(C)nc12` [Example 75, 6-(3-Chloro-phenyl)-3-[2-methoxy-4-(4-methyl-piperazin-1-yl)-phenyl]-5-methyl-pyrazolo[1,5-a]pyrimidin-7-ylamine], in assay [2] (setting [3]), the IC50 was less than 1 µM. On to `COc1cc(N2CCN(C)CC2)ccc1-c1cnn2c(N)c(-c3cccc(O)c3)cnc12` [Example 76, 3-{7-Amino-3-[2-methoxy-4-(4-methyl-piperazin-1-yl)-phenyl]-pyrazolo[1,5-a]pyrimidin-6-yl}-phenol], for which, in assay [1], the IC50 is less than 1 µM.

Take `Nc1c(-c2cccc(O)c2)cnc2c(-c3cccnc3)cnn12` [Example 46, 3-[7-Amino-3-pyridin-3-yl-pyrazolo[1,5-a]pyrimidin-6-yl]-phenol]: the IC50 in assay [2] (setting [4]) is less than 10 µM.

The IC50 is the concentration that inhibits the measured activity by half.
